Data set [1] addresses T1, Glucagon receptor (Homo sapiens, UniProt P47871). Briefly: Antagonist activity at human GCGR expressed in HEK293 cells assessed as inhibition of glucogon-induced cAMP production. The format is functional, cell-based.
Data set [2] concerns the target T1, Glucagon receptor. Briefly: Antagonist activity at human GCGR expressed in HEK293 cells assessed as inhibition of glucogon-induced cAMP production relative to control. The format is functional, cell-based. To be noted: filed as antagonist, concentration not given here.
For data set [3], the target named is T2, Gastric inhibitory polypeptide receptor (Homo sapiens, UniProt P48546).
T2 sequence (P48546 whole entry): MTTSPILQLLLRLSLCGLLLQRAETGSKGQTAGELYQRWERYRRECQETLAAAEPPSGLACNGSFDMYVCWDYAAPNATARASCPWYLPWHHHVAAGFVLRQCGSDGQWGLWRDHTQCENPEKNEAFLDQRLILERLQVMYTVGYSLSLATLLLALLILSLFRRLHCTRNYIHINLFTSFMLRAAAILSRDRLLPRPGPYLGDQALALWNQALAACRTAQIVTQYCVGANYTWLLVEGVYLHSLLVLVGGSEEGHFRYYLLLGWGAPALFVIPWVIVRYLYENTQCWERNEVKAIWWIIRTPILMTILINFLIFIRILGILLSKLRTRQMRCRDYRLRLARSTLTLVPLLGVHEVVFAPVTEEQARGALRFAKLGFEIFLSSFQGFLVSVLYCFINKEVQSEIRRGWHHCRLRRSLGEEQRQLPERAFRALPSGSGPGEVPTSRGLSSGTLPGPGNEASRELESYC
Briefly: Antagonist activity at human GIPR expressed in HEK293 cells assessed as inhibition of GIP-induced cAMP production. It is filed as functional, cell-based. (Changes in cAMP serve as a functional read-out for many G protein-coupled receptors.)

For data set [4], the target named is T3, Gastric inhibitory polypeptide receptor (Homo sapiens) (UniProt P48546).
T3 sequence (whole entry): T2 sequence (P48546 whole entry)
Briefly: Antagonist activity at human GIPR expressed in HEK293 cells assessed as inhibition of GIP-induced cAMP production relative to control. It is filed as functional, cell-based. The note with it: concentration not given here.

Data set [5] deals with Glucagon-like peptide 1 receptor (Homo sapiens, UniProt P43220). Briefly: Antagonist activity at human GLP-1R expressed in HEK293 cells assessed as inhibition of GLP1-induced cAMP production. It is filed as functional, cell-based.
For data set [6], the target named is Glucagon receptor (Mus musculus) (UniProt Q61606). Briefly: Antagonist activity at mouse GCGR expressed in CHO-K1 cells assessed as inhibition of glucogon-induced cAMP production relative to control. The note with it: filed as antagonist, concentration not given here. The format is functional, cell-based.
Data set [7] has as its target Glucagon receptor (Mus musculus, UniProt Q61606). Briefly: Antagonist activity at mouse GCGR expressed in CHO-K1 cells assessed as inhibition of glucogon-induced cAMP production. It is filed as functional, cell-based.
The target of data set [8] is T4, Gastric inhibitory polypeptide receptor (Mus musculus, UniProt Q0P543).
T4 sequence (Q0P543 whole entry): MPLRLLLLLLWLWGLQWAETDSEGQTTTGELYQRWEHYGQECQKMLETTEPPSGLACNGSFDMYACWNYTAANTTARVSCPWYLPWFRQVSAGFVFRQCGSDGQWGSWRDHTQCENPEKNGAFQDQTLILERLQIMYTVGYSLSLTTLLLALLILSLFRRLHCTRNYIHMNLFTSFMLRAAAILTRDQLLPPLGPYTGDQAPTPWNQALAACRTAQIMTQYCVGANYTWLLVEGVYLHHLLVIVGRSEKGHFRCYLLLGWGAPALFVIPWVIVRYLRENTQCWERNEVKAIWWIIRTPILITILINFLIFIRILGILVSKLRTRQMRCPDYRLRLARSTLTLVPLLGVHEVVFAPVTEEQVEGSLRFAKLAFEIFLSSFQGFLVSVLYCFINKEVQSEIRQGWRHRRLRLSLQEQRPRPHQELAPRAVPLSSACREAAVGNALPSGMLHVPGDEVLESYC
Briefly: Antagonist activity at mouse GIPR expressed in CHO-K1 cells assessed as inhibition of GIP-induced cAMP production. The format is cell-based.

For data set [9], the target named is T5, Gastric inhibitory polypeptide receptor (Mus musculus) (UniProt Q0P543).
T5 sequence (whole entry): T4 sequence (Q0P543 whole entry)
Briefly: Antagonist activity at mouse GIPR expressed in CHO-K1 cells assessed as inhibition of GIP-induced cAMP production relative to control. It is filed as cell-based. The note with it: concentration not given here.

In data set [10] the target is T6, Glucagon-like peptide 1 receptor (Mus musculus, UniProt O35659).
T6 sequence (O35659 whole entry): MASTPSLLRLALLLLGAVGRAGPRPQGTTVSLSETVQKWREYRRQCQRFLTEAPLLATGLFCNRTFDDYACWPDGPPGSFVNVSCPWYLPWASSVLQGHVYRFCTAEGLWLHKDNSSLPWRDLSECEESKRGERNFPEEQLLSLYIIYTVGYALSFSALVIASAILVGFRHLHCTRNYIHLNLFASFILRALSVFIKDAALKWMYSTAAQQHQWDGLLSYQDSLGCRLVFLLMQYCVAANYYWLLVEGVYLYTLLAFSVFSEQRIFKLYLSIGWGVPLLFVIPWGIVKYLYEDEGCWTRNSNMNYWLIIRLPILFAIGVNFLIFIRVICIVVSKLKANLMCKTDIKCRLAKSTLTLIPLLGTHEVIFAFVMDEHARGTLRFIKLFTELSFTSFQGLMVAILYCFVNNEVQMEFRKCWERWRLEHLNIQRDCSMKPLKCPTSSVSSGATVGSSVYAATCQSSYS
Briefly: Antagonist activity at mouse GLP1R expressed in CHO-K1 cells assessed as inhibition of GLP1-induced cAMP production. The format is functional, cell-based.

Data set [11] concerns the target T7, Glucagon-like peptide 1 receptor (Mus musculus) (UniProt O35659).
T7 sequence (whole entry): T6 sequence (O35659 whole entry)
Briefly: Antagonist activity at mouse GLP1R expressed in CHO-K1 cells assessed as inhibition of GLP1-induced cAMP production relative to control. It is filed as functional, cell-based. The note with it: concentration not given here.

For another data set, the system named is Mus musculus. Briefly: Inhibition of IUB288-induced glucose elevation in C57BL/6 mouse at 1500 nmol/kg, sc pretreated for 15 mins followed by IUB288 stimulation and measured upto 120 mins. The format is functional, organism-based. To be noted: time 135.0 min.
Data set [12] can be described thus: Toxicity in C57BL/6 mouse assessed as adverse local and systemic responses at 1500 nmol/kg, sc. To be noted: in vivo.
The nature of data set [13]: Half life in C57BL/6 mouse at 1500 nmol/kg, sc measured upto 240 mins by LC-MS analysis. It is filed as ADME, organism-based. To be noted: in vivo.
Data set [14] is described as follows: Cmax in C57BL/6 mouse at 1500 nmol/kg, sc measured upto 240 mins by LC-MS analysis. The format is ADME, organism-based. The arrangement: route subcutaneous, dose 1500 nmol/kg, time <=240. The note with it: in vivo.
Data set [15] is described as follows: AUC in C57BL/6 mouse at 1500 nmol/kg, sc measured upto 240 mins by LC-MS analysis. It is filed as ADME, organism-based. The arrangement: route subcutaneous, dose 1500 nmol/kg, time <=240. The note with it: in vivo.
The nature of data set [16]: Aqueous solubility of the compound at pH 8 by LC-MS analysis. To be noted: buffer. The format is physicochemical.
A short description of data set [17]: Chemical stability of compound in PBS buffer incubated for 5 to 7 days by LC-MS analysis. It is filed as physicochemical. To be noted: time 5-7 day.

SMILES strings stand for the structures. Activity calls are given as the source filed them. No cut-off for these calls is given here.

As usually defined, the IC50 is the point on the concentration scale where inhibition reaches its midpoint. What is called inhibition is the relative decrease from the control value, in per cent. For orientation: half-life means how long it takes for the measured level to halve. Read a low half-life as rapid decline. As usually defined, the Cmax is the peak of the concentration-time curve. The AUC is the area under the concentration-time curve, a measure of exposure. Low readings indicate less exposure, high ones more exposure. What is called solubility is the dissolved amount per volume that the medium holds.

T1 sequence (P47871 whole entry): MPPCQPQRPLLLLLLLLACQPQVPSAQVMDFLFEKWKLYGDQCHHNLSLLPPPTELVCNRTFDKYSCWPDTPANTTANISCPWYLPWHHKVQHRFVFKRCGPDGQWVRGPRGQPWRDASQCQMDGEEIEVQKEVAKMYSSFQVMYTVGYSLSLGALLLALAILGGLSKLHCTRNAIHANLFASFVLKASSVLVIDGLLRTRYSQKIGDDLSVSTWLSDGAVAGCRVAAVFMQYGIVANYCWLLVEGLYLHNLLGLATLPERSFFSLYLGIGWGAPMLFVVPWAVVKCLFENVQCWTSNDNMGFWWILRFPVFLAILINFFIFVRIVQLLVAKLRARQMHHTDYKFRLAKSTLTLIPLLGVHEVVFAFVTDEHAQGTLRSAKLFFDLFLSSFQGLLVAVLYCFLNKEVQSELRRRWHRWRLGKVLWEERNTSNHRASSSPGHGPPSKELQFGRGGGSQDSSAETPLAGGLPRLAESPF
Glucagon-like peptide 1 receptor (Homo sapiens, UniProt P43220), sequence (P43220 whole entry): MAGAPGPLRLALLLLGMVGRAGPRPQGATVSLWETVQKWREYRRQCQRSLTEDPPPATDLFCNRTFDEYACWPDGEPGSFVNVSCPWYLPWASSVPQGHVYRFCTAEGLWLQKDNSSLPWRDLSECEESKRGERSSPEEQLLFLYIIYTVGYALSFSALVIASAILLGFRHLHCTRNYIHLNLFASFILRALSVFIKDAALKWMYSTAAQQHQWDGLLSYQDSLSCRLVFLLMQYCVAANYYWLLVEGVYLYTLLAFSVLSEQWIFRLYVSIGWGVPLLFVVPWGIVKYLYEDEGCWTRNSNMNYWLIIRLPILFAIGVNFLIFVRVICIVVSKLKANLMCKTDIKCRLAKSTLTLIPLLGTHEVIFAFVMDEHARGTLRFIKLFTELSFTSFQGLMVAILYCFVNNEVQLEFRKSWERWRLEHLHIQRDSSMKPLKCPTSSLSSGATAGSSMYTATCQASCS
Glucagon receptor (Mus musculus, UniProt Q61606), sequence (Q61606 whole entry): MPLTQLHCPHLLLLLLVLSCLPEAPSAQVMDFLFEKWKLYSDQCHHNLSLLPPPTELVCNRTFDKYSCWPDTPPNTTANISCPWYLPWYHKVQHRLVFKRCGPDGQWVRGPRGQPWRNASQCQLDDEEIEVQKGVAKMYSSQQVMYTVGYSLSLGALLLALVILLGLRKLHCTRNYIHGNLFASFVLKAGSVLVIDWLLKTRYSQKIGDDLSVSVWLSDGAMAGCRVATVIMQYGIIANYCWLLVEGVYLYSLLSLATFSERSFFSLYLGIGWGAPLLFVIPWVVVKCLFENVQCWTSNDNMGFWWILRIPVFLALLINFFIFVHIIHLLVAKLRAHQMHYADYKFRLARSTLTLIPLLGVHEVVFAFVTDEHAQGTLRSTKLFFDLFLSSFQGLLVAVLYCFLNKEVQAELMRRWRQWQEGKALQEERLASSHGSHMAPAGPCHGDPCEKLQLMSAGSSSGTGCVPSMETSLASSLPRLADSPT
Glucagon receptor (Mus musculus), sequence (Q61606 whole entry): as above

Turning to `CSCC[C@H](NC(=O)[C@H](CC(C)C)NC(=O)[C@H](Cc1c[nH]c2ccccc12)NC(=O)[C@H](CCC(N)=O)NC(=O)[C@@H](NC(=O)[C@H](Cc1ccccc1)NC(=O)[C@H](CC(=O)O)NC(=O)[C@H](CCC(N)=O)NC(=O)[C@H](C)NC(=O)[C@H](CCCNC(=N)N)NC(=O)[C@H](CCCNC(=N)N)NC(=O)[C@H](CO)NC(=O)[C@H](CC(=O)O)NC(=O)[C@H](CC(C)C)NC(=O)[C@H](Cc1ccc(O)cc1)NC(=O)[C@H](CCCCN)NC(=O)[C@H](CO)NC(=O)[C@H](Cc1ccc(O)cc1)NC(=O)[C@H](CC(=O)O)NC(=O)[C@H](CO)NC(=O)[C@@H](NC(=O)[C@@H](O)Cc1ccccc1)[C@@H](C)O)C(C)C)C(=O)N[C@@H](CC(=O)O)C(=O)N[C@H](C(N)=O)[C@@H](C)O`, the IC50 on Glucagon receptor [1] is 12.1 nM; in data set [3], over 1000 nM; in data set [5], over 1000 nM; on Glucagon receptor [7], 23.1 nM; in [8], over 1000 nM; in data set [10], over 1000 nM. The inhibition is 99% on Glucagon receptor [2]; 20% in data set [4]; 92% in data set [6]; 10% in [9]; 1% in data set [11]. In the data set on Mus musculus, the inhibition result was “Active”. The Activity entry in [12] is recorded as “Non-Toxic”. Further, the half-life in [13] was 30.7 min. The Cmax in [14] was determined as 261 nM. This molecule also had an AUC at 4 h in [15] of 0.209 µM·h. This molecule also returned a solubility in data set [16] of over 500 µM. Also, in data set [17], the Stabilty result is “Stable”.

Source of the values: ChEMBL document CHEMBL4808176, “Optimization of Truncated Glucagon Peptides to Achieve Selective, High Potency, Full Antagonists” (J Med Chem, 2021).
